Drawing on ChEMBL document CHEMBL1143770, “Mono, di and tri-mannopyranosyl phosphates as mannose-1-phosphate prodrugs for potential CDG-Ia therapy” (Bioorg Med Chem Lett, 2007), this text covers inhibition and Activity for 4 compounds.

Data set [1] in a line: Inhibition 2[3H]mannose incorporation into glycoconjugates in lymphoblasts isolated from congenital disorders of glycosylation-Ia patient at 300 uM. The following applies: Homo sapiens, Lymphoblast. Format: functional.
The nature of data set [2]: Cytotoxicity in human lymphoblasts assessed as release of cellular lactate dehydrogenase at 300 uM after 16 hrs relative to methanol. Format: cell-based. To be noted: lymphoblast.

The inhibition is the relative decrease from the control value, in per cent.

On to `CC(=O)OC[C@H]1O[C@H](OP(=O)(Oc2ccccc2)O[C@H]2O[C@H](COC(C)=O)[C@@H](OC(C)=O)[C@H](OC(C)=O)[C@@H]2OC(C)=O)[C@@H](OC(C)=O)[C@@H](OC(C)=O)[C@@H]1OC(C)=O` (single isomer, unassigned), for which, in data set [1], the inhibition at 300 µM was 26%.
Take `CC(=O)OC[C@H]1O[C@H](OP(=O)(Oc2cccc3ccccc23)O[C@H]2O[C@H](COC(C)=O)[C@@H](OC(C)=O)[C@H](OC(C)=O)[C@@H]2OC(C)=O)[C@@H](OC(C)=O)[C@@H](OC(C)=O)[C@@H]1OC(C)=O` (single isomer, unassigned): at 300 µM the inhibition in data set [1] was 56%. Further, the Activity result in data set [2] is “<= 25%”.
Take `CC(C)C(=O)OC[C@H]1O[C@H](OP(=O)(Oc2ccccc2)O[C@H]2O[C@H](COC(=O)C(C)C)[C@@H](OC(=O)C(C)C)[C@H](OC(=O)C(C)C)[C@@H]2OC(=O)C(C)C)[C@@H](OC(=O)C(C)C)[C@@H](OC(=O)C(C)C)[C@@H]1OC(=O)C(C)C` (single isomer, unassigned): the inhibition at 300 µM in data set [1] came to 78%.
In turn, `CCCC(=O)OC[C@H]1O[C@H](OP(=O)(OCc2ccccc2)O[C@H]2O[C@H](COC(=O)CCC)[C@@H](OC(=O)CCC)[C@H](OC(=O)CCC)[C@@H]2OC(=O)CCC)[C@@H](OC(=O)CCC)[C@@H](OC(=O)CCC)[C@@H]1OC(=O)CCC` (single isomer, unassigned) displayed an inhibition at 300 µM in data set [1] of 71%.
